How the values were obtained:
Format in all cases: cell-based
A549 [1] = experiment: Inhibition of Vesicular stomatitis virus envelope glycoprotein-mediated viral entry into human A549 cells assessed as infectivity at 10 uM after 48 hrs postinfection by luciferase assay relative to control; set-up: scale not given: the % may be the effect or the level left
A549 [2] = experiment: Inhibition of Influenza A virus (A/Viet Nam/1203/2004(H5N1)) hemagglutininin-mediated viral entry into human A549 cells assessed as infectivity at 10 uM after 48 hrs postinfection by luciferase assay relative to control; set-up: scale not given: the % may be the effect or the level left
A549 [3] = experiment: Inhibition of Influenza A virus (A/Bar-headed Goose/Qinghai/59/05(H5N1)) hemagglutininin-mediated viral entry into human A549 cells assessed as infectivity at 10 uM after 48 hrs postinfection by luciferase assay relative to control; set-up: scale not given: the % may be the effect or the level left
[4] = Inhibition of Influenza A virus (A/Viet Nam/1203/2004(H5N1)) hemagglutininin-mediated viral entry into human A549 cells assessed as luciferase activity after 48 hrs postinfection by luminometry
[5] = Inhibition of Influenza A virus (A/Bar-headed Goose/Qinghai/59/05(H5N1)) hemagglutininin-mediated viral entry into human A549 cells assessed as luciferase activity after 48 hrs postinfection by luminometry

SMILES	Activity (A549 [1]) [%]	Activity (A549 [2]) [%]	Activity (A549 [3]) [%]	IC50 [4] [µM]	IC50 [5] [µM]
CCC(/C=C/[C@@H](C)[C@H]1CC[C@H]2[C@@H]3CC=C4C[C@@H](O[C@@H]5O[C@H](CO)[C@@H](O[C@@H]6O[C@@H](C)[C@H](O)[C@@H](O)[C@H]6O)[C@H](O)[C@H]5O[C@@H]5O[C@@H](C)[C@H](O)[C@@H](O)[C@H]5O)CC[C@]4(C)[C@H]3CC[C@]12C)C(C)C (stereo partly specified)	76.2	64.6	73.6		
COC(=O)[C@]12CC[C@@H](C)[C@H](C)[C@H]1C1=CC[C@@H]3[C@@]4(C)CC[C@H](O[C@@H]5O[C@H](CO)[C@@H](O[C@@H]6O[C@@H](C)[C@H](O)[C@@H](O)[C@H]6O)[C@H](O)[C@H]5O[C@@H]5O[C@@H](C)[C@H](O)[C@@H](O)[C@H]5O)C(C)(C)[C@@H]4CC[C@@]3(C)[C@]1(C)CC2	86	43.3	37.7	8.54	6
Cc1cn([C@H]2C[C@H](N=[N+]=[N-])[C@@H](CO)O2)c(=O)[nH]c1=O [ZIDOVUDINE]	0.015			0.011	0.012
CC(=O)O[C@H]1C[C@@H]2[C@H](CC[C@]3(C)[C@@H]4[C@H](C[C@@H]23)O[C@]2(CC[C@@H](C)CO2)[C@H]4C)[C@@]2(C)CC[C@H](O[C@@H]3O[C@H](CO)[C@@H](O[C@@H]4O[C@@H](C)[C@H](O)[C@@H](O)[C@H]4O)[C@H](O)[C@H]3O[C@@H]3O[C@@H](C)[C@H](O)[C@@H](O)[C@H]3O)C[C@H]12	101	46.6	50.4	9.25	7.58
COC(=O)[C@]12CCC(C)(C)C[C@H]1C1=CC[C@@H]3[C@@]4(C)CC[C@H](O[C@@H]5O[C@H](CO)[C@@H](O[C@@H]6O[C@@H](C)[C@H](O)[C@@H](O)[C@H]6O)[C@H](O)[C@H]5O[C@@H]5O[C@@H](C)[C@H](O)[C@@H](O)[C@H]5O)C(C)(C)[C@@H]4CC[C@@]3(C)[C@]1(C)CC2	48.4	17.5	35.3		
C[C@@H]1O[C@@H](O[C@H]2[C@H](O[C@H]3CC[C@@]4(C)C(=CC[C@@H]5[C@@H]4CC[C@]4(C)C(=O)CC[C@@H]54)C3)O[C@H](CO)[C@@H](O[C@@H]3O[C@@H](C)[C@H](O)[C@@H](O)[C@H]3O)[C@@H]2O)[C@H](O)[C@H](O)[C@H]1O	100	106	108		
C[C@@H]1CC[C@@]2(OC1)O[C@H]1C[C@H]3[C@@H]4C[C@H](O)[C@H]5C[C@@H](O[C@@H]6O[C@H](CO)[C@@H](O[C@@H]7O[C@@H](C)[C@H](O)[C@@H](O)[C@H]7O)[C@H](O)[C@H]6O)CC[C@]5(C)[C@H]4CC[C@]3(C)[C@H]1[C@@H]2C	117	87.4	98.2		
C[C@@H]1CC[C@@]2(OC1)O[C@H]1C[C@H]3[C@@H]4C[C@H](O)[C@H]5C[C@@H](O[C@@H]6O[C@H](CO)[C@@H](O)[C@H](O)[C@H]6O[C@@H]6O[C@@H](C)[C@H](O)[C@@H](O)[C@H]6O)CC[C@]5(C)[C@H]4CC[C@]3(C)[C@H]1[C@@H]2C	122	57.9	61		
C[C@@H]1CC[C@@]2(OC1)O[C@H]1C[C@H]3[C@@H]4C[C@H](O)[C@H]5C[C@@H](O[C@@H]6O[C@H](CO)[C@@H](O[C@@H]7O[C@@H](C)[C@H](O)[C@@H](O)[C@H]7O)[C@H](O)[C@H]6O[C@@H]6O[C@@H](C)[C@H](O)[C@@H](O)[C@H]6O)CC[C@]5(C)[C@H]4CC[C@]3(C)[C@H]1[C@@H]2C	111	36.3	42.6	7.84	7.22
C[C@@H](CO)CC[C@H]1O[C@H]2C[C@H]3[C@@H]4C[C@H](O)[C@H]5C[C@@H](O[C@@H]6O[C@H](CO)[C@@H](O[C@@H]7O[C@@H](C)[C@H](O)[C@@H](O)[C@H]7O)[C@H](O)[C@H]6O[C@@H]6O[C@@H](C)[C@H](O)[C@@H](O)[C@H]6O)CC[C@]5(C)[C@H]4CC[C@]3(C)[C@H]2[C@@H]1C	111	102	97.9		

From ChEMBL document CHEMBL1154771, “Discovery of the first series of small molecule H5N1 entry inhibitors” (J Med Chem, 2009)
